Measurements as given in patent US20230039711A1, “AHR INHIBITORS AND USES THEREOF” (Ikena Oncology, Inc., priority 2020, published 2023).

Legend:
[1] = Nonclinical safety studies incl. 28-day GLP study in rat; assay type: in vivo; conditions: rats
[2] = Monotherapy dosing in human patients, safety; assay type: in vivo; conditions: 200 mg, 400 mg, 800 mg, and 1200 mg once daily (QD)
[3] = system: other receptors, transporters, and kinases; assay: Selectivity for AHR over other receptors, transporters, and kinases
human T cell = assay: Human T cell assays; assay type: cell-based
AHR = target: T1, AHR (Homo sapiens, UniProt P35869); assay: AHR translocation from cytoplasm to nucleus in the presence of a ligand, and downstream signaling in in vivo tumor models
T1 construct: host or cells: in vivo tumor models (not specified)
T1 sequence (P35869 11-848): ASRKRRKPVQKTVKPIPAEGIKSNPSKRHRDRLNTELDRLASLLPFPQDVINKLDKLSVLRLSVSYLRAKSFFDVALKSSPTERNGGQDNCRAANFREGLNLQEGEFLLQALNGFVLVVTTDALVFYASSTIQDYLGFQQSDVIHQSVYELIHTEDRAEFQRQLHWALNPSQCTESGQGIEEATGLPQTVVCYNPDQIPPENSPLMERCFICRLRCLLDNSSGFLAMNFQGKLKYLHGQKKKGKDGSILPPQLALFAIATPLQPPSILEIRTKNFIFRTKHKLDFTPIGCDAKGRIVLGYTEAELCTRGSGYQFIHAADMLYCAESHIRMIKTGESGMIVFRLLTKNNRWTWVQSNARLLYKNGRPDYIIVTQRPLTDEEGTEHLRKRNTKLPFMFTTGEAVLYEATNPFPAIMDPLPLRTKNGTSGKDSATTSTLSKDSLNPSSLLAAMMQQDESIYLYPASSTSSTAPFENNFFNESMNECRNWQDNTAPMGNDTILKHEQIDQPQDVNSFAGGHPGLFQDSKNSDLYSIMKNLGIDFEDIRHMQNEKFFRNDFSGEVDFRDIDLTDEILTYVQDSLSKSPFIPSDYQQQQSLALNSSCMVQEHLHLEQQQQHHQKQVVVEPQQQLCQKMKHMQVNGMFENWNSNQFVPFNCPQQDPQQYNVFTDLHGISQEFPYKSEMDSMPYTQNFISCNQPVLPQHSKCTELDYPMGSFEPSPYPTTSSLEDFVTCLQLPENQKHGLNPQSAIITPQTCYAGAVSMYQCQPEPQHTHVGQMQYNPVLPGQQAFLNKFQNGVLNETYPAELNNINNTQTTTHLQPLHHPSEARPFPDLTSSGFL

[4] = Nonclinical safety, single-dose and repeated-dose toxicological studies in rodent and non-rodent species; assay type: in vivo; conditions: species not specified for these findings
[5] = Nonclinical safety studies incl. 28-day GLP study in monkeys; assay type: in vivo, monkey

CC(C)c1cnn2c(N[C@@H]3CCc4[nH]c5ccccc5c4C3)nc(-c3cncc(F)c3)nc12 [Compound A, (R)-N-(2-(5-fluoropyridin-3-yl)-8-isopropylpyrazolo[1,5-a][1,3,5]triazin-4-yl)-2,3,4,9-tetrahydro-1H-carbazol-3-amine]
stomach findings [1]: nonglandular stomach ulceration and edema | testicular findings ([1]; not resolved after 2 weeks of dosing cessation): seminiferous tubule degeneration and debris in the epididymis lumen | serious adverse events (SAEs) [2]: no serious adverse events | selectivity for AHR over other receptors, transporters, and kinases [3]: highly selective for AHR | CYP1A1 gene expression (human T cell): inhibits | T cell state (human T cell): induces an activated T cell state | interleukin (IL)-22 gene expression (human T cell): inhibits | pro-inflammatory cytokine IL-2 (human T cell): increase | pro-inflammatory cytokine IL-9 (human T cell): increase | AHR translocating from the cytoplasm to the nucleus and downstream signaling (AHR): effectively blocks | noteworthy findings of potential relevance to humans (general) [4]: emesis, loose stool, dehydration, body weight loss | thymus weights and cortical lymphocytes ([5]; monkey): decreased | QTc prolongation ([5]; monkeys): up to 11%
